In ChEMBL document CHEMBL4831556, “Discovery of a Novel Potent and Selective Calcium Release-Activated Calcium Channel Inhibitor: 2,6-Difluoro-N-(2'-methyl-3'-(4-methyl-5-oxo-4,5-dihydro-1,3,4-oxadiazol-2-yl)-[1,1'-biphenyl]-4-yl)benzamide. Structure-Activity Relationship and Preclinical Characterization” (J Med Chem, 2021):

What was measured:
Cytochrome P450 2C9 = Cytochrome P450 2C9 (Homo sapiens, UniProt P11712); assay: Inhibition of CYP2C9 in human liver microsomes at 10 uM by LC-MS/MS analysis; type: ADME
[1] = AUClast in Lewis rat at 10 mg/kg, po measured upto 24 hrs by LC-MS/MS analysis; type: ADME, organism-based; parameters: route oral, dose 10 mg/kg, time <=24; conditions: in vivo
Cytochrome P450 1A2 = biological target: T1, Cytochrome P450 1A2 (Homo sapiens, UniProt P05177); assay: Inhibition of CYP1A2 in human liver microsomes at 10 uM by LC-MS/MS analysis; type: ADME
T1 sequence (P05177 whole entry): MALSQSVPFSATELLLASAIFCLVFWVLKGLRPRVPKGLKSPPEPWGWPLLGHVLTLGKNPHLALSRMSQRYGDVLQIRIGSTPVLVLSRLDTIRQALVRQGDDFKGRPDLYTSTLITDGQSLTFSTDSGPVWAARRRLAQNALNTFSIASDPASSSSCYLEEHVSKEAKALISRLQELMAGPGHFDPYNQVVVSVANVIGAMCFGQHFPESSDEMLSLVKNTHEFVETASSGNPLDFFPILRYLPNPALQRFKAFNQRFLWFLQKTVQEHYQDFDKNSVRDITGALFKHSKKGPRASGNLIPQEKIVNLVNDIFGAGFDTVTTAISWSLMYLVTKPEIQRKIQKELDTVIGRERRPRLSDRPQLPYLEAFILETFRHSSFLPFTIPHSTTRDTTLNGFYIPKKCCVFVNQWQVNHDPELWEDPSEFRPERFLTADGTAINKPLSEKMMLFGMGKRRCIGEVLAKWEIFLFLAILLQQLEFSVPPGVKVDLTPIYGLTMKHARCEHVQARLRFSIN

[2] = Volume of distribution at steady state in Lewis rat at 1 mg/kg, iv measured upto 24 hrs by LC-MS/MS analysis; type: ADME, organism-based; conditions: in vivo, read-out: Vdss
[3] = Cmax in BALB/c mouse at 10 mg/kg, po measured upto 24 hrs by LC-MS/MS analysis; type: ADME, organism-based; parameters: route oral, dose 10 mg/kg, time <=24; conditions: in vivo
[4] = AUClast in Lewis rat at 1 mg/kg, iv measured upto 24 hrs by LC-MS/MS analysis; type: ADME, organism-based; parameters: route intravenous, dose 1 mg/kg, time <=24; conditions: in vivo
[5] = Oral bioavailability in BALB/c mouse at 10 mg/kg measured upto 24 hrs by LC-MS/MS analysis; type: ADME, organism-based; conditions: in vivo
[6] = Plasma protein binding; type: ADME, cell-free; conditions: read-out: PPB
[7] = Apparent permeability across apical to basolateral side in human Caco-2 cells at 5 uM measured upto 120 mins in orbital shaker; type: ADME, cell-based
[8] = AUClast in BALB/c mouse at 10 mg/kg, po measured upto 24 hrs by LC-MS/MS analysis; type: ADME, organism-based; parameters: route oral, dose 10 mg/kg, time <=24; conditions: in vivo
[9] = Half life in BALB/c mouse at 1 mg/kg, iv measured upto 24 hrs by LC-MS/MS analysis; type: ADME, organism-based; conditions: in vivo
[10] = Metabolic stability in monkey liver microsomes preincubated for 5 mins followed by NADPH addition and measured upto 30 mins by LC-MS/MS analysis; type: ADME, Macaca mulatta, Microsome; conditions: rhesus monkey, 0.5 h, time <=35 min
Cytochrome P450 2B6 = biological target: T2, Cytochrome P450 2B6 (Homo sapiens, UniProt P20813); assay: Inhibition of CYP2B6 in human liver microsomes at 10 uM by LC-MS/MS analysis; type: ADME
T2 sequence (P20813 whole entry): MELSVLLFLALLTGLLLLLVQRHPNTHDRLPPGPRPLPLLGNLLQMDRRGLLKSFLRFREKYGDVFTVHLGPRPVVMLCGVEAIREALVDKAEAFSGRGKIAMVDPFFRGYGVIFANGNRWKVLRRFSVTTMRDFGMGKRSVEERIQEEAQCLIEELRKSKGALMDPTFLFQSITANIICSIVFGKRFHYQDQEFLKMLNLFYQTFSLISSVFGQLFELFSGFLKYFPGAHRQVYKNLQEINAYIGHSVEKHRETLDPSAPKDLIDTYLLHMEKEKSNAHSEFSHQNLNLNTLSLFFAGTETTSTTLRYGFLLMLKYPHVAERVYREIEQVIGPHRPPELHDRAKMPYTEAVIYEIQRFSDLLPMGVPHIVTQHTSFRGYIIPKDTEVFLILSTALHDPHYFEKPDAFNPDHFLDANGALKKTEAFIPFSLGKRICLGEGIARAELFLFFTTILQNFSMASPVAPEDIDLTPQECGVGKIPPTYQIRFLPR

[11] = Tmax in BALB/c mouse at 10 mg/kg, po measured upto 24 hrs by LC-MS/MS analysis; type: ADME, organism-based; conditions: in vivo
[12] = Tmax in Lewis rat at 10 mg/kg, po measured upto 24 hrs by LC-MS/MS analysis; type: ADME, organism-based; conditions: in vivo
Cytochrome P450 2D6 = Cytochrome P450 2D6 (Homo sapiens, UniProt P10635); assay: Inhibition of CYP2D6 in human liver microsomes at 10 uM by LC-MS/MS analysis; type: ADME
[13] = Tmax in BALB/c mouse at 1 mg/kg, iv measured upto 24 hrs by LC-MS/MS analysis; type: ADME, organism-based; conditions: in vivo
[14] = Half life in Lewis rat at 1 mg/kg, iv measured upto 24 hrs by LC-MS/MS analysis; type: ADME, organism-based; conditions: in vivo
Cytochrome P450 2C19 = Cytochrome P450 2C19 (Homo sapiens, UniProt P33261); assay: Inhibition of CYP2C19 in human liver microsomes at 10 uM by LC-MS/MS analysis; type: ADME
[15] = Clearance in Lewis rat at 1 mg/kg, iv measured upto 24 hrs by LC-MS/MS analysis; type: ADME, organism-based; conditions: in vivo
[16] = Half life in BALB/c mouse at 10 mg/kg, po measured upto 24 hrs by LC-MS/MS analysis; type: ADME, organism-based; conditions: in vivo
[17] = Oral bioavailability in Lewis rat at 10 mg/kg measured upto 24 hrs by LC-MS/MS analysis; type: ADME, organism-based; conditions: in vivo
[18] = Clearance in BALB/c mouse at 1 mg/kg, iv measured upto 24 hrs by LC-MS/MS analysis; type: ADME, organism-based; conditions: in vivo
[19] = Tmax in Lewis rat at 1 mg/kg, iv measured upto 24 hrs by LC-MS/MS analysis; type: ADME, organism-based; conditions: in vivo
[20] = Metabolic stability in rat liver microsomes preincubated for 5 mins followed by NADPH addition and measured upto 30 mins by LC-MS/MS analysis; type: ADME, Microsome; conditions: 0.5 h, time <=35 min

Cytochrome P450 2C19, sequence (P33261 whole entry): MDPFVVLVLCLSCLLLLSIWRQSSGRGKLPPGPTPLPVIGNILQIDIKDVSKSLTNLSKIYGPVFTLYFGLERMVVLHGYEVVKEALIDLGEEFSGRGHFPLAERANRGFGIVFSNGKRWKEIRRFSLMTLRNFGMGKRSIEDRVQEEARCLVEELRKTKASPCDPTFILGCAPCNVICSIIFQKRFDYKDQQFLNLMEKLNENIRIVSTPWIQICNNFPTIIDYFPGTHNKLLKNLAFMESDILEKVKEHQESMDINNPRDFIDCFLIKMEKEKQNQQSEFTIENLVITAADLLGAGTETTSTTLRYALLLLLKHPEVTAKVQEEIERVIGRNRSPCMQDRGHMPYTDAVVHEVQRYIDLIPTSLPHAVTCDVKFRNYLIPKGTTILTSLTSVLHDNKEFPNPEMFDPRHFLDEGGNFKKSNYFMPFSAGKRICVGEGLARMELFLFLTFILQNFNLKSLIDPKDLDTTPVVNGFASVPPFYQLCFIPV
Cytochrome P450 2C9, sequence (P11712 whole entry): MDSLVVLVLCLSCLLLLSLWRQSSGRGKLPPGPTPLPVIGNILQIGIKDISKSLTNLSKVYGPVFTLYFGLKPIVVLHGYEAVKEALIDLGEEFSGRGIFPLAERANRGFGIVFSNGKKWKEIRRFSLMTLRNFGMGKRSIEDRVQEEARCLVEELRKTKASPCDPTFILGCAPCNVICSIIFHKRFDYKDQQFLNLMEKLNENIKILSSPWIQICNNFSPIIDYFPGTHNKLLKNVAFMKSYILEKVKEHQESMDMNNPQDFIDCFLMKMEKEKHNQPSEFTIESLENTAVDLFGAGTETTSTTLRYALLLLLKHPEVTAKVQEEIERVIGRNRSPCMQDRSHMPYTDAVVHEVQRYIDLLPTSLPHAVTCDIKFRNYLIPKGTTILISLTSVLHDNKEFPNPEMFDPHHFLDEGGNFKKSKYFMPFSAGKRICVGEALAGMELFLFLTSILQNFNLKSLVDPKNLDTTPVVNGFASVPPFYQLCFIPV
Cytochrome P450 2D6, sequence (P10635 whole entry): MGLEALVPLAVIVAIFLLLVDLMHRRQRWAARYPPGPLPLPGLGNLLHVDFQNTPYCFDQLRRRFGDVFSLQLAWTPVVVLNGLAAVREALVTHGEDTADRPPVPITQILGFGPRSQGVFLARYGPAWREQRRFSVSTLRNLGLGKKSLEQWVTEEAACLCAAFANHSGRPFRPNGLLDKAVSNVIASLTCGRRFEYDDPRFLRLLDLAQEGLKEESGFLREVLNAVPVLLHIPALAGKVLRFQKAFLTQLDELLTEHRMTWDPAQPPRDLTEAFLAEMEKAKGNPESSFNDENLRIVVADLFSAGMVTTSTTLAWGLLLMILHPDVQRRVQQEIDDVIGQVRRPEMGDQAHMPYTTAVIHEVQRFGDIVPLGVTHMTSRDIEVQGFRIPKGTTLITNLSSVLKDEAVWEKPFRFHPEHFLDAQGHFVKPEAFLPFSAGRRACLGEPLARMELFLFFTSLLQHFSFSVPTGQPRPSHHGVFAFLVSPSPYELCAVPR

SMILES | inhibition (INH) (Cytochrome P450 2C9) | AUC(0-t) at 24 h [1] [µM·h] | inhibition (INH) (Cytochrome P450 1A2) | Vd [2] [L/kg] | Cmax [3] [µM] | AUC(0-t) at 24 h [4] [µM·h] | bioavailability [5] [%] | fraction unbound [6] | Papp A→B at 2 h, 5 µM [7] [×10⁻⁶ cm/s] | AUC(0-t) at 24 h [8] [µM·h] | half-life [9] [h] | Stability [10] | inhibition (INH) (Cytochrome P450 2B6) | Tmax [11] [h] | Tmax [12] [h] | inhibition (INH) (Cytochrome P450 2D6) | Tmax [13] [min] | half-life [14] [h] | inhibition (INH) (Cytochrome P450 2C19) | clearance [15] [mL/min/kg] | also measured
Cc1c(-c2ccc(NC(=O)c3c(F)cccc3F)cc2)cccc1-c1nn(C)c(=O)o1 | Not Active | 353 | Not Active | 1 | 4 | 29 | 79 | 0.01 | 14.1 | 56 | 6.4 | Stable | Not Active | 1 | 8 | Not Active | 4.8 | > 15 | Not Active | 0.9 | half-life [16]: 5.3 h; bioavailability [17]: 100%; clearance [18]: 5.2 mL/min/kg; Tmax [19]: 4.8 min; Stability [20]: Stable
Cc1c(-c2ccc(NC(=O)c3c(F)cccc3Cl)cc2)cccc1-c1nn(C)c(=O)o1 | Not Active | 167 | Not Active | 1 | 4.7 | 28 | 100 | 0.01 | 12.3 | 44 | 5 | Stable | Not Active | 1 | 2 | Not Active | 4.8 | 13 | Not Active | 1 | half-life [16]: 6 h; bioavailability [17]: 60%; clearance [18]: 8 mL/min/kg; Tmax [19]: 4.8 min; Stability [20]: Stable
